In patent publication US10202412B2, “β-D-2′-deoxy-2′-substituted-4′-substituted-2-substituted-N6-substituted-6-aminopurinenucleotides for the treatment of paramyxovirus and orthomyxovirus infections” (Atea Pharmaceuticals, Inc., priority 2016, dated 2019):

How the values were obtained:
[1] = system: Respiratory syncytial virus (RSV) type A, strain A2 (ATCC VR-1540); experiment: dNHBE assay: RSV virus yield reduction (EC90); format: cell-based; conditions: RSV (A2) in dNHBE cells, concentration reducing virus yield by 1 log10, mean of at least two experiments
Protocol: (§1) Differentiated normal human bronchial epithelial (dNHBE) cells were grown on 6 mm mesh disks in transwell inserts to approximately 1.2×10^6 cells/disk and disks were transferred to individual wells of a 6-well plate. 1 mL of proprietary culture medium was added to the basolateral side of the cells and the apical side was exposed to a humidified 95% air/5% CO2 environment. Cells were cultured at 37° C. for one day and then the mucin layer was removed from the apical side of the cells by repeated (3×) washing with 500 μL 30 mM HEPES buffered saline solution and culture medium on the basal side was replenished.
Respiratory syncytial virus (RSV) type A, strain A2 (ATCC VR-1540), previously passaged in MA-104 cells to make working stock cultures, was diluted 1/10 in medium before infection, using a multiplicity of infection (MOI) of ≤0.03 CCID50 per cell.
(§2) Various concentrations of test compounds in medium were applied in duplicate to the apical (140 μL) and basal sides (1 mL) for a 1 hour pre-treatment, followed by addition of 140 μL of virus inoculum to each cell insert on the apical side. The viral inoculum and treatments were removed after 2 hours. Control cells were treated with placebo (culture medium only). Following infection, the apical medium was removed and the basal side was replaced with fresh compound in medium. The cells were maintained at the air-liquid interface, and cell culture medium on the basal side was replaced daily with fresh medium containing test compound. After 4 days, the liquid was removed from the basal side and discarded and virus released into the apical compartment was harvested by the addition of 500 μL of culture medium. The medium was thoroughly mixed, then removed, diluted 1:1 with 40% sucrose and stored at ≤−80° C.
To determine the virus titer from each treated cell culture, MA-104 cells were seeded in 96-well plates and grown overnight (37° C.) to confluence. Samples containing virus were diluted in 10-fold increments in infection medium and 200 μL of each dilution transferred into respective wells of a 96-well microtiter plate. Four microwells were used for each dilution to determine 50% viral endpoints. After 7 days of incubation, each well was scored positive for virus if any cytopathic effect was observed as compared with the uninfected control. The virus dose that was able to infect 50% of the cell cultures (CCID50 per 0.1 mL) was calculated by the Reed-Muench method. This was repeated in duplicate for each test sample, so that values reported are an average of 2 independent CCID5o determinations. Untreated, uninfected cell controls were tested as negative controls. Statistical differences in the titers were evaluated with a one-way analysis of variance (ANOVA) followed by Dunnett's multiple comparisons test compared with the untreated virus controls.
(§3) Concentrations of test compounds that reduced virus yield by 1 log10 (90% effective concentration; EC90) were calculated by regression analysis. The reported EC90 value is the mean of at least two experiments. Potential toxicity of the test compounds was evaluated microscopically.

[2] = system: Differentiated normal human bronchial epithelial (dNHBE) cells; experiment: dNHBE assay: toxicity evaluated microscopically; format: cell-based; parameters: unit not given here
Protocol: as §1, §2, §3

[3] = system: respiratory syncytial virus A2 (ATCC VR-1540); experiment: Cytopathic effect assay with RSV A2 in MA-104 cells; format: cell-based; conditions: human respiratory syncytial virus, MA104, CPE inhibition, neutral red
Protocol: (§4) Test compounds were dissolved in DMSO and then prepared in eight half-log dilutions in MEM medium with 50 μg/mL gentamicin and 2% FBS (MA-104 cells only). Each dilution was added to 5 wells of a 96-well plate with 80-100% confluent cells (either MA-104 cells or HEp-2 cells). Three wells of each dilution were infected with respiratory syncytial virus A2 (ATCC VR-1540) and two wells remained uninfected as toxicity controls. After maximum cytopathic effect (CPE) was observed microscopically in untreated virus control wells, plates were stained with neutral red dye for approximately 2 hours, then supernatant dye was removed and the incorporated dye was extracted in 50:50 Sorensen citrate buffer/ethanol and read on a spectrophotometer. Optical density values were normalized based on cell and virus controls, then the concentration of test compound required to inhibit CPE by 50% (EC50) was calculated by regression analysis. The reported EC50 value is the mean of at least two experiments. The concentration of compound that caused 50% CPE in the absence of virus was similarly calculated to determine cytotoxicity (CC50).

[4] = system: respiratory syncytial virus A2 (ATCC VR-1540); experiment: Cytopathic effect assay with RSV A2 in HEp-2 cells; format: cell-based; conditions: human respiratory syncytial virus; RSV in HEp-2 cells, CPE inhibition, neutral red
Protocol: as §4

[5] = system: HEp-2 cells; experiment: Cytotoxicity in uninfected HEp-2 cells, neutral red; format: cell-based; parameters: unit not given here; conditions: absence of virus
Protocol: as §4

[6] = Hamster lung triphosphate assay; format: in vivo, Golden Syrian hamsters; conditions: analog triphosphate in hamster lung tissue 72 h after oral target dose of 50 mg/kg in PEG400
Protocol: Male Golden Syrian hamsters (n=3 per test compound) were fasted overnight and then administered test compounds in PEG400 at a target dose of 50 mg/kg by oral gavage. Food was returned 4 h after dosing. At 72 h post dose, animals were anesthetized and a sample of lung tissue was removed and flash-frozen in liquid nitrogen. Approximately 0.5 g of frozen tissue was homogenized using a Polytron homogenizer in 5 volumes homogenization solution (MeOH:50% aqueous KOH:268 mM EDTA, pH 8, 1750:5:750, v/v) in a dry ice/ethanol bath. Supernatants were prepared by centrifugation and analyzed by LC-MS/MS for concentrations of the corresponding analog triphosphates. See Table 7 below for the 72 hour lung triphosphate concentration. After 72 hours, the lung triphosphate concentration following administration of Compound AB and Compound AC was greater than 800 ng/g.

[7] = system: human bone marrow progenitor cells (BFU-E); experiment: Human bone marrow progenitor cell assay, BFU-E; format: cell-based; conditions: Homo sapiens, 336 h; BFU-E-specific culture, 14-day incubation, colony counts; read-out: Bone Marrow Stem Cell IC50 BFU-E
Protocol: (§5) Select compounds were tested in an in vitro selectivity study with human bone marrow progenitor cells. Fresh human bone marrow progenitor cells (Invitrogen) suspended in either BFU-E or GM-CSF-specific culture medium were added, at 10^5 cells/well, to triplicate serial dilutions of TA in 6-well plates. After 14-day incubations, colony counts were used to determine […] values. BFU-E colonies were confirmed using the benzidene technique. No cytotoxicity was observed from any of the tested compounds.

[8] = system: human bone marrow progenitor cells (CFU-GM); experiment: Human bone marrow progenitor cell assay, CFU-GM (GM-CSF-specific culture); format: cell-based; conditions: Homo sapiens, CFU-GM, 336 h, 14-day incubation, colony counts, read-out: Bone Marrow Stem Cell IC50 CFU-GM
Protocol: as §5

[9] = system: iPS cardiomyocytes; experiment: iPS cardiomyocyte assay (XTT viability); format: cell-based; conditions: 72 h, 3 days incubation, XTT staining
Protocol: Select compounds were tested in an in vitro selectivity study with iPS cardiomyocytes. iPS cardiomyocytes (Cellular Dynamics) were seeded in microliter plates at 1.5×10^4 cells per well. After 48-hr incubation, cells were washed and maintenance medium containing 30 serially diluted TA was added in triplicate. After incubating for an additional 3 days, cellviability was measured by staining with XTT and CC50 values were calculated. No cytotoxicity was observed from any of the tested compounds.

[10] = human respiratory syncytial virus

| Structure (SMILES) | EC90 [1, 10] [µM] | Visual toxicity [2] | EC50 [3] [µM] | EC50 [4] [µM] | TC50 [5] | EC90 [1] [µM] | 72 h Lung TP Concentration [6] [ng/g] | IC50 [7] [µM] | IC50 [8] [µM] | IC50 [9] [µM] |
| --- | --- | --- | --- | --- | --- | --- | --- | --- | --- | --- |
| Nc1ccn([C@@H]2O[C@@](CO)(CCl)C(O)[C@H]2F)c(=O)n1 (stereo in doubt) [W] | 0.58 | >338 | 9.6 | 0.6 | >100 | – | – | – | – | – |
| CC(C)OC(=O)[C@H](C)N[P@](=O)(OC[C@@]1(C)O[C@@H](n2cnc3c(N(C)C)nc(NC(=O)C(C)C)nc32)[C@H](F)[C@@H]1O)Oc1ccccc1 [AO, (S)-Isopropyl 2-(((S)-(((2R,3R,4R,5R)-5-(6-(dimethylamino)-2-isobutyramido-9H-purin-9-yl)-4-fluoro-3-hydroxy-2-methyltetrahydrofuran-2-yl)methoxy)(phenoxy)phosphoryl)amino) propanoate] | – | >1.5 | – | – | – | 0.096 | 108 | – | – | – |
| CNc1nc(F)nc2c1ncn2[C@@H]1O[C@](CCl)(CO[P@@](=O)(N[C@@H](C)C(=O)OC(C)C)Oc2ccccc2)[C@@H](O)[C@@H]1F [AQ, (S)-Isopropyl 2-(((S)-(((2R,3R,4S,5R)-5-(6-(methylamino)-2-fluoro-9H-purin-9-yl)-2-(chloromethyl)-4-fluoro-3-hydroxytetrahydrofuran-2-yl)methoxy)(phenoxy)phosphoryl)amino) propanoate] | 0.18 | >1.6 | – | – | – | – | – | > 100 | > 100 | > 100 |
| CNc1nc(N)nc2c1ncn2[C@@H]1O[C@](C)(CO[P@@](=O)(N[C@@H](C)C(=O)OC(C)C)Oc2ccccc2)[C@@H](O)[C@H]1F [Compound AB, (S)-Isopropyl 2-(((S)-(((2R,3R,4R,5R)-5-(2-amino-6-(methylamino)-9H-purin-9-yl)-4-fluoro-3-hydroxy-2-methyltetrahydrofuran-2-yl)methoxy)(phenoxy)phosphoryl)amino) propanoate] | – | >17 | – | – | – | 0.052 | – | > 100 | > 100 | > 100 |
| CNc1nc(N)nc2c1ncn2[C@@H]1O[C@](C)(CO)[C@@H](O)[C@H]1F [Compound C, (2R,3R,4R,5R)-5-(2-Amino-6-(methylamino)-9H-purin-9-yl)-4-fluoro-2-(hydroxymethyl)-2-methyltetrahydrofuran-3-ol] | 3.2 | >320 | – | > 100 | >100 | – | – | – | – | – |
| CNc1nc(N)nc2c1ncn2[C@@H]1O[C@](C)(COP(=O)(N[C@@H](C)C(=O)OC(C)C)Oc2ccccc2)[C@@H](O)[C@H]1F (stereo partly drawn) [Compound D] | 1.7 | >172 | – | > 100 | >100 | – | – | – | – | – |
| CC[C@]1(CO)O[C@@H](n2cnc3c(N(C)C)nc(N)nc32)[C@H](F)[C@@H]1O [Compound O, (2R,3R,4R,5R)-5-(2-Amino-6-(dimethylamino)-9H-purin-9-yl)-2-ethyl-4-fluoro-2-(hydroxymethyl)tetrahydrofuran-3-ol] | > 293 | >293 | > 293 | > 100 | >100 | – | – | – | – | – |
| CC[C@]1(COP(=O)(N[C@@H](C)C(=O)OC(C)C)Oc2ccccc2)O[C@@H](n2cnc3c(N(C)C)nc(N)nc32)[C@H](F)[C@@H]1O (stereo partly drawn) [Compound P, (2S)-Isopropyl 2-(((((2R,3R,4R,5R)-5-(2-amino-6-(dimethylamino)-9H-purin-9-yl)-2-ethyl-4-fluoro-3-hydroxytetrahydrofuran-2-yl)methoxy)(phenoxy)-phosphoryl)amino) propanoate] | 88.6 | >143 | > 164 | > 100 | >100 | – | – | – | – | – |
